Consider seven molecules from ChEMBL document CHEMBL2163295, “Uvaridacols E-H, highly oxygenated antiausterity agents from Uvaria dac” (2012).

Assay [1] relates to PANC-1. As to the kind of experiment: Cytotoxicity against human PANC1 cells grown in nutrient-deprived medium after 24 hrs by WST8 assay. Type of assay: functional. A general note: Tetrazolium assays rely on reduction of a dye to a coloured formazan, in cell work by metabolically active cells.
The subject of assay [2] is PANC-1. The assay can be described thus: Cytotoxicity against human PANC1 cells grown in DMEM medium after 24 hrs by WST8 assay. It is filed as functional.

Take `COc1cc(C[C@H]2C(=O)OC[C@@H]2Cc2ccc(OC)c(OC)c2)ccc1O` [ARCTIGENIN]: the PC50 in the assay on PANC-1 [1] is 1 µM.

For `O=c1[nH]cc(F)c(=O)[nH]1` [FLUOROURACIL], the PC50 with PANC-1 [1] and in the assay on PANC-1 [2] was above 200 µM each time.

With `Nc1ccn([C@@H]2O[C@H](CO)[C@@H](O)C2(F)F)c(=O)n1` [GEMCITABINE], the PC50 in the assay on PANC-1 [1] and in the assay on PANC-1 [2] was above 200 µM in each case.

Turning to `O=C(OC[C@]1(O)C=C[C@H](O)[C@@H](OC(=O)c2ccccc2)[C@@H]1O)c1ccccc1` [UVARIDACOL E], in the assay with PANC-1 [1], the PC50 amounted to 135 µM.

As to `CC(=O)O[C@@H]1[C@@H](OC(=O)c2ccccc2)[C@@H](O)C=C[C@]1(O)COC(=O)c1ccccc1` [UVARIDACOL F], in the assay on PANC-1 [1], the PC50 stood at 124 µM.

As to `O=C(OC[C@]1(O)C=C[C@@H](O)[C@H](O)[C@H]1OC(=O)c1ccccc1)c1ccccc1` [UVARIDACOL G], in the assay with PANC-1 [1], the PC50 is above 200 µM.

In the assay with PANC-1 [1], `CC(=O)O[C@@H]1[C@@H](O)[C@H](OC(=O)c2ccccc2)C=C[C@@]1(O)COC(=O)c1ccccc1` [UVARIDACOL H] gave a PC50 of 156 µM.
